Measured values from publication PMC5864073, “A D-enantiomer of the antimicrobial peptide GL13K evades antimicrobial resistance in the Gram positive bacteria Enterococcus faecalis and Streptococcus gordonii” (PLoS ONE, 2018).
Where a SMILES comes first, the peptide text is derived from it. [ ]: non-standard residue; d: D form.

Legend:
[1] = system: S. gordonii dltA mutant; assay: Selection for peptide resistance, serial MIC assays; format: cell-based, Streptococcus gordonii; settings: repeated treatment with sub-inhibitory concentrations, 2–3 experiments
Description: (§1) To investigate potential resistance development against the GL13K peptides, dilutions of the peptides were prepared and incubated as described for the MIC assay. The next day (day 0), the MIC was recorded and the culture in the well with the highest peptide concentration that allowed growth (i.e 0.5 x MIC) was diluted 1:100 and used as an inoculum for the next round of selection in a new MIC assay and so forth until a stable plateau of resistance was reached.
(§2) Fig 6 Development of resistance in S. gordonii. MICs for L-GL13K (circles) and D-GL13K (squares) were recorded on consecutive days using S. gordonii DL1 (wild-type) (open symbols) (D-enantiomer only) and dltA (closed symbols). The MIC for each day is expressed relative to the starting MIC (day 0). Data from 2–3 experiments are shown as mean ± range.

[2] = system: S. gordonii DL1 (wild-type); assay: as above; format: cell-based, Streptococcus gordonii; settings: repeated treatment with sub-inhibitory concentrations, 2–3 experiments
Description: as §1, §2

[3] = system: E. faecalis OG1RF dltA (TX5427) biofilm; assay: Biofilm assay (Calgary device); format: cell-based, Enterococcus faecalis; settings: 24 h biofilm of OG1RF dltA, peptide 100 mg/L, 4 h, CFU relative to the wild-type biofilm
Description: (§3) E. faecalis OG1RF, TX5427 or V583 were cultured in a Calgary device for 24h in THB. Biofilms were treated with peptides (100 mg/L) for 4h and surviving cells were sonicated and plated on THA for enumeration of CFUs.
(§4) Fig 3 Effect of GL13K peptides on biofilms of E. faecalis. Twenty-four hour biofilms of OG1RF; OG1RF dltA or V583 were treated with 100 mg/L of L-GL13K (L) or D-GL13K (D). Surviving CFU were enumerated from each peg and expressed relative to the mean CFU recovered from pegs of wild-type cells treated with buffer alone (OG1RF—C). Data from 2–4 experiments are expressed as mean ± SEM (N = 6–13). V583 was only treated with D-GL13K.

[4] = system: E. faecalis OG1RF biofilm; assay: Biofilm assay (Calgary device); format: cell-based, Enterococcus faecalis; settings: 24 h biofilm of OG1RF, peptide 100 mg/L, 4 h, CFU enumerated
Description: as §3, §4

[5] = system: vancomycin-resistant E. faecalis V583 biofilm; assay: Biofilm assay (Calgary device); format: cell-based, Enterococcus faecalis; settings: 24 h biofilm of V583, peptide 100 mg/L, 4 h, CFU enumerated
Description: as §3, §4

[6] = system: E. faecalis OG1RF; assay: Triton X-100 induced bacterial autolysis assay; format: cell-based, Enterococcus faecalis; settings: PBS with 0.05% Triton X-100, peptide 100 mg/L, OD600 for 180 min
Description: (§5) The lysis assay followed an established protocol for bacterial autolysis with minor modifications. Exponentially growing cells were washed twice in PBS then washed once in ice-cold dH2O. The bacteria were incubated in PBS with 0.05% Triton X-100 and peptides at a concentration of 100 mg/L. OD600 was monitored spectrophotometrically for 180 min. In some experiments, the cells were incubated with the peptides for 2h in PBS+0.05% Triton X-100 and then cultured on THA to enumerate surviving cells.
(§6) Fig 2 Effect of GL13K peptides on Triton X-100 induced autolysis. E. faecalis OG1RF (A) or the autolysis-deficient strain TX5128 (B) were incubated in PBS with 0.05% Triton X-100 in the absence of peptide (control) or in the presence of 100 mg/L of L-GL13K or D-GL13K (D). The OD600 was recorded for 180 min and expressed as a percent of starting OD600 of the control sample. (C): Bactericidal activity of GL13K peptides in PBS+0.05% Triton X-100. E. faecalis OG1RF were incubated with 0.05% Triton X-100 in the absence of peptide (Ctrl) or with L-GL13K or D-GL13K for 2h. Surviving CFU were enumerated and are shown as mean ± SEM (N = 5). Peptide treated samples were compared to the untreated control by Kruskal-Wallis test with Dunn’s multiple comparison post-test. n.s., not significant.

[7] = system: wild-type E. faecalis; assay: Bactericidal activity in sodium phosphate buffer; format: cell-based, Enterococcus faecalis; settings: 10^8 CFU/ml wild-type E. faecalis, no energy source, 10 mM sodium-phosphate pH 7.4, 2 h, 37°C, spotted on THA; D N = 4, L N = 3
Description: These assays were performed according to our established protocol with some modifications. Cells were washed three times in 0.9% NaCl and five μl of washed cells (10^9 CFU/ml) were added to the peptides diluted 2-fold (128 to 4 mg/L) in 45 μl of 10 mM sodium-phosphate, pH 7.4. The samples were incubated at 37°C for 2 h and 10 μl were then spotted on THA plates to assess bactericidal activity.

[8] = system: conditioned supernatant of protease-deficient E. faecalis (TX5128); assay: Proteolysis of peptide by conditioned culture supernatant (P. aeruginosa Xen41 bioassay); format: in vitro ADME, Enterococcus faecalis; settings: conditioned sterile-filtered supernatant of protease-deficient E. faecalis TX5128, peptide 32 mg/L, 2 h, 37°C; bioluminescence read-out after 15 min; three independent experiments
Description: To test proteolytic processing of GL13K peptides, overnight bacterial cultures were centrifuged (5 min, 13,000 g) and the conditioned supernatants were sterile-filtered (0.22 μm, Corning). Filtered supernatant (16.8 μl) was incubated with 3.2 μl (3.2 μg) peptide at 37°C for 2 h to allow bacterial proteases in the supernatant to process the peptide. To determine residual peptide activity, 70 μl of 10 mM sodium phosphate buffer, pH 7.4 was added to each sample and then supplemented with 10 μl (10^8 CFU) of bioluminescent Pseudomonas aeruginosa Xen41 (Caliper Lifesciences; now Perkin Elmer, MA) that had been washed three times in 0.9% NaCl (final maximal peptide concentration 32 mg/L). Viability of the indicator bacteria was determined after 15 min incubation at 37°C by determining bioluminescence in a Synergy HT plate reader. The luminescence detected in the absence of added peptide was used as a measure of 100% proteolysis.
Fig 1 Relative proteolysis of GL13K peptides. (A): Wild-type (OG1RF) or the protease-negative strain (TX5128) of E. faecalis was cultured on THA containing 3% gelatin. Gelatinase activity was visualized as a turbid halo around the bacterial colonies; (B): L-GL13K (L) or D-GL13K (D) (32 mg/L) was incubated with conditioned supernatant of wild-type (OG1RF) or the protease-negative strain (TX5128) of E. faecalis for 2 h. Residual peptide activity was determined by adding bioluminescent P. aeruginosa Xen41 to the mixture. Bioluminescence from surviving bacteria was used as a measure of proteolytic degradation of each peptide and expressed relative to bacterial bioluminescence in the absence of peptides (equivalent to 100% proteolysis). Data are shown as mean ± SEM from three independent experiments and were analyzed by paired t-test for each strain. n.s., not significant.

[9] = system: wild-type E. faecalis (OG1RF); assay: Selection for peptide resistance, serial MIC assays; format: cell-based, Enterococcus faecalis; settings: serial passage at 0.5 x MIC
Description: as §1
as §2, with “4” for “6”, “E. faecalis.” for “S. gordonii.”, “E. faecalis OG1RF” for “S. gordonii DL1”, “three” for “2–3”, “SEM.” for “range.”

[10] = system: E. faecalis dltA mutant (TX5427); assay: as above; format: cell-based, Enterococcus faecalis; settings: serial passage at 0.5 x MIC, L-GL13K after two rounds, D-GL13K after seven rounds, three experiments
Description: as §1
as §2, with “4” for “6”, “E. faecalis.” for “S. gordonii.”, “E. faecalis OG1RF” for “S. gordonii DL1”, “three” for “2–3”, “SEM.” for “range.”

[11] = system: E. faecalis OG1RF; assay: Bactericidal activity in PBS+0.05% Triton X-100; format: cell-based, Enterococcus faecalis; settings: PBS+0.05% Triton X-100, peptide 100 mg/L, 2 h, CFU on THA, N = 5
Description: as §5, §6

Q: What does the source list for `CC[C@@H](C)[C@@H](NC(=O)[C@@H](CCCCN)NC(=O)CN)C(=O)N[C@@H](C(=O)N[C@H](CCCCN)C(=O)N[C@H](CC(C)C)C(=O)N[C@H](CCCCN)C(=O)N[C@H](C)C(=O)N[C@H](CO)C(=O)N[C@H](CC(C)C)C(=O)N[C@H](CCCCN)C(=O)N[C@H](CC(C)C)C(=O)N[C@H](CC(C)C)C(N)=O)[C@H](C)CC` [D-GL13K] (H-G[dK][dI][dI][dK][dL][dK][dA][dS][dL][dK][dL][dL]-NH2; N-terminus and C-terminus assumed)?
A: Increase of MIC relative to starting MIC (day 0) [1]: little change of the MIC; Increase of MIC relative to starting MIC (day 0) [2]: little change of the MIC; Reduction of viable biofilm CFU [3]: highly effective; Reduction of viable biofilm CFU [4]: 3 log10; Reduction of viable biofilm CFU [5]: 3 log10; Effect on Triton X-100 induced autolysis (OD600) [6]: no autolysis was seen; Peptide concentration required for complete killing [7]: 15 ± 10 mg/L; Proteolysis of peptide (loss of activity against bioluminescent P. aeruginosa Xen41) [8]: did not show significant proteolysis; Increase of MIC relative to starting MIC (day 0) [9]: did not substantially increase the MIC; Increase of MIC relative to starting MIC (day 0) [10]: 2 fold; Reduction of viable cells under autolysis conditions [11]: 3 log10
